Measurements from the supplement of paper PMC10307832.

Tests used:
Experiment in all cases: relative viability (nuclei count vs DMSO), 5 days (fraction); higher = more cells survive
NCI-H520 = system: NCI-H520
Summary of the method: (§1)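 Dosing by pin tool came one day after lung cancer cell lines were seeded in 1536-well plates, using either one drug or a fixed anchor-drug dose plus five library-drug doses (not always all listed) in √10 steps. After 5 days, nuclei were counted on 4× images. Relative viability is treated-well nuclei count divided by vehicle-well nuclei count, and values are medians of duplicate plates.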

NCI-H3122 = system: NCI-H3122
Summary of the method: as §1

NCI-H838 = system: NCI-H838
Summary of the method: as §1

NCI-H1944 = system: NCI-H1944
Summary of the method: as §1

SW 900 = system: SW 900
Summary of the method: as §1

NCI-H1666 = system: NCI-H1666
Summary of the method: as §1

NCI-H322M = system: NCI-H322M
Summary of the method: as §1

NCI-H441 = system: NCI-H441
Summary of the method: as §1

NCI-H1355 = system: NCI-H1355
Summary of the method: as §1

NCI-H2085 = system: NCI-H2085
Summary of the method: as §1

SW 1573 = system: SW 1573
Summary of the method: as §1

NCI-H460 = system: NCI-H460
Summary of the method: as §1

NCI-H2347 = system: NCI-H2347
Summary of the method: as §1

EKVX = system: EKVX
Summary of the method: as §1

NCI-H1734 = system: NCI-H1734
Summary of the method: as §1

LK-2 = system: LK-2
Summary of the method: as §1

NCI-H1755 = system: NCI-H1755
Summary of the method: as §1

H3255 = system: H3255
Summary of the method: as §1

NCI-H1650 = system: NCI-H1650
Summary of the method: as §1

NCI-H650 = system: NCI-H650
Summary of the method: as §1

NCI-H358 = system: NCI-H358
Summary of the method: as §1

NCI-H596 = system: NCI-H596
Summary of the method: as §1

ChaGo-K-1 = system: ChaGo-K-1
Summary of the method: as §1

A-427 = system: A-427
Summary of the method: as §1

NCI-H2228 = system: NCI-H2228
Summary of the method: as §1

CCCCCCCCCCCC1=C(O)C(=O)C=C(O)C1=O [Embelin] + COc1cc2c(Oc3ccc(NC(=O)C4(C(=O)Nc5ccc(F)cc5)CC4)cc3F)ccnc2cc1OCCCN1CCOCC1 [Foretinib] (partner 0.25 µM)
relative viability (NCI-H520; first compound 0.08 µM): 0.891
relative viability (NCI-H520; first compound 0.8 µM): 0.891
relative viability (NCI-H520; first compound 2.53 µM): 0.878
relative viability (NCI-H520; first compound 8 µM): 0.807
relative viability (NCI-H3122; first compound 0.08 µM): 0.98
relative viability (NCI-H3122; first compound 0.8 µM): 1.01
relative viability (NCI-H3122; first compound 2.53 µM): 0.951
relative viability (NCI-H3122; first compound 8 µM): 1.03
relative viability (NCI-H838; first compound 0.08 µM): 1.08
relative viability (NCI-H838; first compound 0.8 µM): 1.11
relative viability (NCI-H838; first compound 2.53 µM): 1.06
relative viability (NCI-H838; first compound 8 µM): 1.09
relative viability (NCI-H1944; first compound 0.08 µM): 0.842
relative viability (NCI-H1944; first compound 0.8 µM): 0.968
relative viability (NCI-H1944; first compound 2.53 µM): 0.989
relative viability (NCI-H1944; first compound 8 µM): 0.998
relative viability (SW 900; first compound 0.08 µM): 0.89
relative viability (SW 900; first compound 0.8 µM): 0.915
relative viability (SW 900; first compound 2.53 µM): 1.02
relative viability (SW 900; first compound 8 µM): 0.876
relative viability (NCI-H1666; first compound 0.08 µM): 0.943
relative viability (NCI-H1666; first compound 0.8 µM): 1.07
relative viability (NCI-H1666; first compound 2.53 µM): 0.978
relative viability (NCI-H1666; first compound 8 µM): 0.941
relative viability (NCI-H322M; first compound 0.08 µM): 0.938
relative viability (NCI-H322M; first compound 0.8 µM): 1.22
relative viability (NCI-H322M; first compound 2.53 µM): 1.03
relative viability (NCI-H322M; first compound 8 µM): 0.961
relative viability (NCI-H441; first compound 0.08 µM): 1.05
relative viability (NCI-H441; first compound 0.8 µM): 1.09
relative viability (NCI-H441; first compound 2.53 µM): 1.22
relative viability (NCI-H441; first compound 8 µM): 1.09
relative viability (NCI-H1355; first compound 0.08 µM): 0.969
relative viability (NCI-H1355; first compound 0.8 µM): 1.07
relative viability (NCI-H1355; first compound 2.53 µM): 1.21
relative viability (NCI-H1355; first compound 8 µM): 1.03
relative viability (NCI-H2085; first compound 0.08 µM): 1.04
relative viability (NCI-H2085; first compound 0.8 µM): 0.986
relative viability (NCI-H2085; first compound 2.53 µM): 1.05
relative viability (NCI-H2085; first compound 8 µM): 0.843
relative viability (SW 1573; first compound 0.08 µM): 0.974
relative viability (SW 1573; first compound 0.8 µM): 0.998
relative viability (SW 1573; first compound 2.53 µM): 1.08
relative viability (SW 1573; first compound 8 µM): 0.948
relative viability (NCI-H460; first compound 0.08 µM): 0.996
relative viability (NCI-H460; first compound 0.8 µM): 1.03
relative viability (NCI-H460; first compound 2.53 µM): 1.11
relative viability (NCI-H460; first compound 8 µM): 1.08
relative viability (NCI-H2347; first compound 0.08 µM): 0.981
relative viability (NCI-H2347; first compound 0.8 µM): 0.837
relative viability (NCI-H2347; first compound 2.53 µM): 1.21
relative viability (NCI-H2347; first compound 8 µM): 0.942
relative viability (EKVX; first compound 0.08 µM): 0.789
relative viability (EKVX; first compound 0.8 µM): 0.926
relative viability (EKVX; first compound 2.53 µM): 0.625
relative viability (EKVX; first compound 8 µM): 0.875
relative viability (NCI-H1734; first compound 0.08 µM): 0.899
relative viability (NCI-H1734; first compound 0.8 µM): 0.926
relative viability (NCI-H1734; first compound 2.53 µM): 0.989
relative viability (NCI-H1734; first compound 8 µM): 0.924
relative viability (LK-2; first compound 0.08 µM): 1.13
relative viability (LK-2; first compound 0.8 µM): 1.7
relative viability (LK-2; first compound 2.53 µM): 1.47
relative viability (LK-2; first compound 8 µM): 1.79
relative viability (NCI-H1755; first compound 0.08 µM): 0.912
relative viability (NCI-H1755; first compound 0.8 µM): 0.948
relative viability (NCI-H1755; first compound 2.53 µM): 0.927
relative viability (NCI-H1755; first compound 8 µM): 0.906
relative viability (H3255; first compound 0.08 µM): 0.831
relative viability (H3255; first compound 0.8 µM): 1.01
relative viability (H3255; first compound 2.53 µM): 0.82
relative viability (H3255; first compound 8 µM): 0.956
relative viability (NCI-H1650; first compound 0.08 µM): 1.09
relative viability (NCI-H1650; first compound 0.8 µM): 1.05
relative viability (NCI-H1650; first compound 2.53 µM): 1.11
relative viability (NCI-H1650; first compound 8 µM): 0.968
relative viability (NCI-H650; first compound 0.08 µM): 0.998
relative viability (NCI-H650; first compound 0.8 µM): 1.21
relative viability (NCI-H650; first compound 2.53 µM): 1.08
relative viability (NCI-H650; first compound 8 µM): 1.02
relative viability (NCI-H358; first compound 0.08 µM): 0.753
relative viability (NCI-H358; first compound 0.8 µM): 0.81
relative viability (NCI-H358; first compound 2.53 µM): 0.976
relative viability (NCI-H358; first compound 8 µM): 0.869
relative viability (NCI-H596; first compound 0.08 µM): 0.834
relative viability (NCI-H596; first compound 0.8 µM): 0.835
relative viability (NCI-H596; first compound 2.53 µM): 1.02
relative viability (NCI-H596; first compound 8 µM): 0.764
relative viability (ChaGo-K-1; first compound 0.08 µM): 0.951
relative viability (ChaGo-K-1; first compound 0.8 µM): 1.01
relative viability (ChaGo-K-1; first compound 2.53 µM): 1
relative viability (ChaGo-K-1; first compound 8 µM): 1.01
relative viability (A-427; first compound 0.08 µM): 1.15
relative viability (A-427; first compound 0.8 µM): 1.14
relative viability (A-427; first compound 2.53 µM): 1.12
relative viability (A-427; first compound 8 µM): 1.2
relative viability (NCI-H2228; first compound 0.08 µM): 1.08
relative viability (NCI-H2228; first compound 0.8 µM): 0.868
relative viability (NCI-H2228; first compound 2.53 µM): 1.32
relative viability (NCI-H2228; first compound 8 µM): 0.996
